In patent US8802597B2, “Herbicidal pyrimidines” (E I du Pont de Nemours and Company, priority 2003, dated 2014):
Where two headings read alike, the source gives them in different places.

What was measured:
Format in all cases: in vivo
[1] = test system: Surinam grass (Brachiaria decumbens); experiment: Test B pre/postemergence; details: Urochloa decumbens; for pest or weed control at 125 g/ha: 125 g ai/ha; for pest or weed control at 500 g/ha: 500 g ai/ha
Method in brief: (§1)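 Plants treated pre- or postemergence were compared visually with controls after 13 to 15 days. Ratings ran from 0, no effect, to 100, complete control.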

[2] = test system: barnyardgrass (Echinochloa crus-galli); experiment: Test B pre/postemergence; details: for pest or weed control at 500 g/ha: 500 g ai/ha
Method in brief: as §1

[3] = test system: cocklebur (Xanthium strumarium); experiment: Test B pre/postemergence; details: Xanthium strumarium; for pest or weed control at 125 g/ha: 125 g ai/ha; for pest or weed control at 500 g/ha: 500 g ai/ha
Method in brief: as §1

[4] = test system: corn (Zea mays); experiment: Test B pre/postemergence
Method in brief: as §1

[5] = test system: crabgrass (Digitaria sanguinalis); experiment: Test B pre/postemergence; details: for pest or weed control at 500 g/ha: 500 g ai/ha
Method in brief: as §1

[6] = test system: giant foxtail (Setaria faberii); experiment: Test B pre/postemergence; details: for pest or weed control at 500 g/ha: Setaria faberi, 500 g ai/ha
Method in brief: as §1

[7] = test system: lambsquarters (Chenopodium album); experiment: Test B pre/postemergence; details: Chenopodium album; for pest or weed control at 125 g/ha: 125 g ai/ha; for pest or weed control at 500 g/ha: 500 g ai/ha
Method in brief: as §1

[8] = test system: morningglory (Ipomoea coccinea); experiment: Test B pre/postemergence; details: for pest or weed control at 500 g/ha: 500 g ai/ha
Method in brief: as §1

[9] = test system: pigweed (Amaranthus retroflexus); experiment: Test B pre/postemergence; details: Amaranthus retroflexus; for pest or weed control at 125 g/ha: 125 g ai/ha; for pest or weed control at 500 g/ha: 500 g ai/ha
Method in brief: as §1

[10] = test system: velvetleaf (Abutilon theophrasti); experiment: Test B pre/postemergence; details: Abutilon theophrasti; for pest or weed control at 125 g/ha: 125 g ai/ha; for pest or weed control at 500 g/ha: 500 g ai/ha
Method in brief: as §1

[11] = test system: wheat (Triticum aestivum); experiment: Test B pre/postemergence; details: for plant injury at 500 g/ha: 500 g ai/ha
Method in brief: as §1

[12] = test system: blackgrass (Alopecurus myosuroides); experiment: Test B postemergence
Method in brief: as §1

[13] = test system: wild oat (Avena fatua); experiment: Test B postemergence
Method in brief: as §1

[14] = test system: barnyardgrass (Echinochloa crus-galli); experiment: Test B flooded paddy test; details: Echinochloa crus-galli, Flood, 1000 g ai/ha; scale 0 (no effect) to 100 (complete control); read-out: Plant response rating, Barnyardgrass
Method in brief: (§2)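 Visual injury scoring (0 = no effect, 100 = complete control) versus controls made 13 to 15 days after treatment in the greenhouse. Test species were grown in flooded paddy to the 2-leaf stage: rice, barnyardgrass, umbrella sedge, duck salad.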

[15] = test system: duck salad (Heteranthera limosa); experiment: Test B flooded paddy test; details: Heteranthera limosa, Flood, 1000 g ai/ha; scale 0 to 100; read-out: Plant response rating, Ducksalad
Method in brief: as §2

[16] = test system: rice (Oryza sativa); experiment: Test B flooded paddy test; details: Oryza sativa, Flood, 1000 g ai/ha; scale 0 to 100; read-out: Plant response rating, Rice
Method in brief: as §2

[17] = test system: umbrella sedge (Cyperus difformis); experiment: Test B flooded paddy test; details: Cyperus difformis, Flood, 1000 g ai/ha; scale 0 to 100; read-out: Plant response rating, Sedge, Umbrella
Method in brief: as §2

[18] = Preemergence, 125 g ai/ha, scale 0 to 100 (0 no effect, 100 complete control)
[19] = Postemergence, 125 g ai/ha, scale 0 to 100 (0 no effect, 100 complete control)
[20] = 125 g ai/ha, scale 0 to 100 (0 no effect, 100 complete control)

Nc1nc(C2CC2)nc(C(=O)O)c1Br [Compound 8]
0%: plant injury at 500 g/ha ([11]; Triticum aestivum, post-emergence, Postemergence, scale 0 to 100, read-out: Plant response rating, Wheat) | pest or weed control at 500 g/ha ([12]; Alopecurus myosuroides, post-emergence, 500 g ai/ha, scale 0 to 100, read-out: Plant response rating, Blackgrass) | pest or weed control at 500 g/ha ([13]; Avena fatua, post-emergence, 500 g ai/ha, scale 0 to 100, read-out: Plant response rating, Oat, Wild)
50: Plant response rating, Foxtail, Giant [6, 18]
100: Plant response rating, Morningglory [8, 18]
80%: pest or weed control at 125 g/ha ([1]; post-emergence, Postemergence, scale 0 to 100 (0 no effect, 100 complete control), read-out: Surinam Grass plant response rating) | pest or weed control at 125 g/ha ([5]; Digitaria sanguinalis, pre-emergence, Preemergence, 125 g ai/ha, scale 0 to 100 (0 no effect, 100 complete control), read-out: Plant response rating, Crabgrass) | pest or weed control at 125 g/ha ([10]; post-emergence, Postemergence, scale 0 to 100 (0 no effect, 100 complete control), read-out: Velvetleaf plant response rating) | pest or weed control at 125 g/ha ([10]; pre-emergence, Preemergence, scale 0 to 100 (0 no effect, 100 complete control), read-out: Plant response rating, Velvetleaf) | plant injury at 500 g/ha ([11]; Triticum aestivum, pre-emergence, Preemergence, scale 0 to 100 (0 no effect, 100 complete control), read-out: Wheat plant response rating)
40%: pest or weed control at 1000 g/ha [17]
80: Crabgrass plant response rating [5, 19] | Foxtail, Giant plant response rating [6, 19]
70: Plant response rating, Barnyardgrass [2, 18] | Corn plant response rating [4, 19]
0: Wheat plant response rating [11, 19] | Blackgrass plant response rating [12, 20] | Oat, Wild plant response rating [13, 20]
90: Plant response rating, Corn [4, 18]
60%: pest or weed control at 125 g/ha ([1]; pre-emergence, Preemergence, scale 0 to 100 (0 no effect, 100 complete control), read-out: Plant response rating, Surinam Grass) | plant injury at 125 g/ha ([11]; Triticum aestivum, pre-emergence, Preemergence, 125 g ai/ha, scale 0 to 100 (0 no effect, 100 complete control), read-out: Plant response rating, Wheat) | plant injury at 1000 g/ha [16]
100%: pest or weed control at 125 g/ha ([3]; post-emergence, Postemergence, scale 0 to 100 (0 no effect, 100 complete control), read-out: Cocklebur plant response rating) | pest or weed control at 500 g/ha ([3]; post-emergence, Postemergence, scale 0 to 100, read-out: Plant response rating, Cocklebur) | pest or weed control at 500 g/ha ([3]; pre-emergence, Preemergence, scale 0 to 100 (0 no effect, 100 complete control), read-out: Cocklebur plant response rating) | pest or weed control at 125 g/ha ([7]; post-emergence, Postemergence, scale 0 to 100 (0 no effect, 100 complete control), read-out: Lambsquarters plant response rating) | pest or weed control at 500 g/ha ([7]; post-emergence, Postemergence, scale 0 to 100, read-out: Plant response rating, Lambsquarters) | pest or weed control at 500 g/ha ([7]; pre-emergence, Preemergence, scale 0 to 100 (0 no effect, 100 complete control), read-out: Lambsquarters plant response rating) | pest or weed control at 125 g/ha ([8]; Ipomoea, post-emergence, Postemergence, 125 g ai/ha, scale 0 to 100 (0 no effect, 100 complete control), read-out: Morningglory plant response rating) | pest or weed control at 500 g/ha ([8]; Ipomoea, post-emergence, Postemergence, scale 0 to 100, read-out: Plant response rating, Morningglory) | pest or weed control at 500 g/ha ([8]; Ipomoea, pre-emergence, Preemergence, scale 0 to 100 (0 no effect, 100 complete control), read-out: Morningglory plant response rating) | pest or weed control at 125 g/ha ([9]; post-emergence, Postemergence, scale 0 to 100 (0 no effect, 100 complete control), read-out: Pigweed plant response rating) | pest or weed control at 500 g/ha ([9]; post-emergence, Postemergence, scale 0 to 100, read-out: Plant response rating, Pigweed) | pest or weed control at 125 g/ha ([9]; pre-emergence, Preemergence, scale 0 to 100 (0 no effect, 100 complete control), read-out: Plant response rating, Pigweed) | pest or weed control at 500 g/ha ([9]; pre-emergence, Preemergence, scale 0 to 100 (0 no effect, 100 complete control), read-out: Pigweed plant response rating) | pest or weed control at 500 g/ha ([10]; post-emergence, Postemergence, scale 0 to 100, read-out: Plant response rating, Velvetleaf) | pest or weed control at 500 g/ha ([10]; pre-emergence, Preemergence, scale 0 to 100 (0 no effect, 100 complete control), read-out: Velvetleaf plant response rating)
90%: pest or weed control at 500 g/ha ([1]; post-emergence, Postemergence, scale 0 to 100, read-out: Plant response rating, Surinam Grass) | pest or weed control at 500 g/ha ([1]; pre-emergence, Preemergence, scale 0 to 100 (0 no effect, 100 complete control), read-out: Surinam Grass plant response rating) | pest or weed control at 125 g/ha ([2]; Echinochloa crus-galli, post-emergence, Postemergence, 125 g ai/ha, scale 0 to 100 (0 no effect, 100 complete control), read-out: Barnyardgrass plant response rating) | pest or weed control at 500 g/ha ([2]; Echinochloa crus-galli, post-emergence, Postemergence, scale 0 to 100, read-out: Plant response rating, Barnyardgrass) | pest or weed control at 500 g/ha ([2]; Echinochloa crus-galli, pre-emergence, Preemergence, scale 0 to 100 (0 no effect, 100 complete control), read-out: Barnyardgrass plant response rating) | pest or weed control at 125 g/ha ([3]; pre-emergence, Preemergence, scale 0 to 100 (0 no effect, 100 complete control), read-out: Plant response rating, Cocklebur) | Corn plant response rating (crop injury, 0 = no effect, 100 = complete kill) at 500 g/ha ([4]; Zea mays, post-emergence, Postemergence, 500 g ai/ha, scale 0 to 100) | plant injury at 500 g/ha ([4]; Zea mays, pre-emergence, Preemergence, 500 g ai/ha, scale 0 to 100 (0 no effect, 100 complete control), read-out: Corn plant response rating) | pest or weed control at 500 g/ha ([5]; Digitaria sanguinalis, post-emergence, Postemergence, scale 0 to 100, read-out: Plant response rating, Crabgrass) | pest or weed control at 500 g/ha ([5]; Digitaria sanguinalis, pre-emergence, Preemergence, scale 0 to 100 (0 no effect, 100 complete control), read-out: Crabgrass plant response rating) | pest or weed control at 500 g/ha ([6]; post-emergence, Postemergence, scale 0 to 100, read-out: Plant response rating, Foxtail, Giant) | pest or weed control at 500 g/ha ([6]; pre-emergence, Preemergence, scale 0 to 100 (0 no effect, 100 complete control), read-out: Foxtail, Giant plant response rating) | pest or weed control at 125 g/ha ([7]; pre-emergence, Preemergence, scale 0 to 100 (0 no effect, 100 complete control), read-out: Plant response rating, Lambsquarters) | pest or weed control at 1000 g/ha [15]
70%: pest or weed control at 1000 g/ha [14]
